Measured values taken from US20070088086A1, “Method of using synthetic L-Se-methylselenocysteine as a nutriceutical and a method of its synthesis” (PharmaSe, Incorporated, priority 1999, published 2007).

Key:
mammary tumors = settings: 1 and 2 ppm in rats' diets; cited from earlier work
[1] = system: pre-neoplastic and tumor cell lines; settings: cited from earlier work
[2] = Acute toxicity in a mouse (FIG. 3); settings: in vivo
Experimental: FIG. 3 is a graphic comparison showing the acute toxicity of L-Se-methylselenocysteine in a mouse versus the acute toxicity of selenomethionine in rats.
(§1) FIG. 1 illustrates a comparison between L-Se-methylselenocysteine and L-selenomethionine, and their effect on the growth of normal rabbit fibroblasts. Tests were performed at varying concentrations of L-Se-methylselenocysteine and L-selenomethionine over a three-day period. The amount of cellular growth, as measured by DNA synthesis, that could be stimulated by calf serum at the end of this period was assessed by the addition of tritiated thymidine.

[3] = In vitro lucigenin chemiluminescence (CL) assay of superoxide generation in the presence of GSH
Experimental: Methylseleninic acid (CH3SeOOH) was a dissolved in distilled water. Using a Rannin micropipette, aliquots were added directly to 1.0 ml of a buffered cocktail solution. The buffered cocktail solution was comprised of lucigenin (20 μg/ml), reduced glutathione (GSH) (4 mg/ml), and either sodium borate (0.05M) or sodium phosphate (0.05M), all purchased from Sigma Chemical Co. Two different buffered cocktail solutions were employed: the cocktail containing sodium borate was used for experiments at pH 9.2, which is optimum for the generation, detection and quenching of selenium catalyzed superoxide; and the cocktail containing sodium phosphate was used for experiments at pH 7.4, which is reflective of physiological conditions. One ml of the cocktail solution was added to a 10×50 mm polypropylene tube for use in the chemiluminescence (CL) assay. Chemiluminescence, using lucigenin as the detector of superoxide, was counted in repetitive integrated 30 second increments over time using a Los Alamos Diagnostics (Model 535) chemiluminometer, to which was attached a LKB Model 2209 circulating water bath that held the tube at 36° C. All chemical test assays and controls were performed by the addition of methylseleninic acid directly to the luminometer test tube in the counting chamber. Superoxide dismutase, SOD, purchased from Sigma Chemical Co., was added to the test tube prior to the addition of the methylseleninic acid and used to quench the chemiluminescent reactions.
The complete chemiluminescence cocktail (containing buffer, lucigenin and GSH) produced very low, yet detectable amounts of background chemiluminescence at both a pH of 9.2 and 7.4. This was most likely due to the ambient spontaneous oxidation of GSH, but was not significant to the tests performed. […] Thus the chemiluminescence produced and quantitated in these assays can be attributable to the generation of superoxide. […] The chemiluminescence generated by selenoate catalysis may be used to quantitatively approximate the amount of catalytic selenium present.

[4] = system: normal rabbit fibroblasts; experiment: Growth of normal rabbit fibroblasts, DNA synthesis by tritiated thymidine (FIG. 1); assay type: cell-based; settings: three-day period, compared with selenomethionine
Experimental: FIG. 1 is a graphic comparison between L-Se-methylselenocysteine and L-selenomethionine and their effect on the growth of normal rabbit fibroblasts.
as §1

human cancer cells = experiment: Toxicity to cancer cells, same protocol as normal cells (FIG. 2); assay type: cell-based; settings: compared with selenomethionine
Experimental: FIG. 2 is a graphic comparison showing that L-Se-methylselenocysteine is more toxic to human cancer cells than L-selenomethionine.
as §1

[5] = Solubility of the obtained amino acid in solvents; assay type: physicochemical
From the text: It is contemplated that ion exchange chromatography may be used to purify the amino acid. It is also possible that, on a larger scale, L-Se-methylselenocysteine may be crystallized. […] Accordingly, ethanol may be one likely crystallization solvent.

rats = settings: acute toxicity, reported (Spallholz, 1994); cited from earlier work
colon carcinogenisis = settings: dietary 1.0-2.0 ppm; cited from earlier work
[6] = system: lung, cholorectal and prostate cancer; settings: dietary supplement up to 200 μg/Se/day more than that found in foods; cited from earlier work
[7] = selenol or thiol group; cited from earlier work
cells in culture = settings: cited from earlier work

For `C[Se]C[C@H](N)C(=O)O` (racemic) [Se-methylselenocysteine], the “appearance of palpable mammary tumors” value (mammary tumors) is given as “decreases the appearance of palpable mammary tumors” and the “anticancer effects (cell morphology, cell number, DNA strand breaks)” value [1] is given as “beneficial anticancer effects”.
For `C[Se]C[C@H](N)C(=O)O` [L-Se-methylselenocysteine], the LD50 [2] was 8 mg/kg, the “superoxide generation / chemiluminescence in the in vitro CL assay” value ([3]; pH not stated) was “do not generate superoxide” and the “toxicity to normal cells (growth, DNA synthesis)” value [4] was “less toxic to normal cells”. For the same molecule, the “toxicity to cancer cells” value (human cancer cells) was “more toxic to cancer cells”, the solubility ([5]; in ethanol) was “sparingly soluble” and the solubility ([5]; in methanol) was “fairly soluble”. The solubility ([5]; in water) was “soluble”.
For `C[Se]CC[C@H](N)C(=O)O` [L-selenomethionine], the “superoxide generation / chemiluminescence in the in vitro CL assay” value ([3]; pH not stated) is listed as “do not generate superoxide”, the LD50 (rats) is listed as 4.25 mg/kg and the “effect on the promotional stages of rat colon carcinogenisis” value (colon carcinogenisis) is listed as “inhibitory effect”. The “cancer incidence in humans” value [6] was “reduce the incidence of lung, cholorectal and prostate cancer”.
In the case of `N[C@@H](CS)C(=O)O` [cysteine], the pKa [7] is listed as 8-9.
For `C[Se](=O)O` [methylseleninic acid, Methylseleninic acid], the “lowest level at which chemiluminescence (superoxide generation) could be detected” value ([3]; FIG. 4, GSH reduction) was 0.56 nanomoles of selenium, the “quenching of chemiluminescence by SOD” value ([3]; pH 7.4, 100 units of SOD) was “quenched most of the chemiluminescence activity” and the chemiluminescence ([3]; pH 7.4, complete cocktail with GSH and lucigenin) was “produced chemiluminescence”. For the same molecule, the “quenching of chemiluminescence by SOD” value ([3]; pH 9.2, 100 units of SOD added prior) was “quenched an initial burst of chemiluminescence activity”, the “superoxide generation (chemiluminescence)” value ([3]; pH 9.2, complete cocktail with GSH and lucigenin) was “generated superoxide” and the “chemiluminescence with lucigenin alone” value ([3]; without GSH, pH 9.2 and 7.4) was “produced no additional chemiluminescence”. The “chemiluminescence with GSH alone” value ([3]; without lucigenin, pH 9.2 and 7.4) was “produced no additional chemiluminescence”.
For `C[SeH]` [methylselenol], the “superoxide generation / chemiluminescence in the in vitro CL assay” value ([3]; pH not stated) was “very active redox compound producing superoxide”.
In the case of `CS` [methylthiol], the “quenching of chemiluminescence by SOD” value ([3]; pH not stated) is reported as “SOD did not significantly quench the chemiluminescence” and the “superoxide generation / chemiluminescence in the in vitro CL assay” value ([3]; pH not stated) is reported as “only a fraction of the amount of chemiluminescence as compared to methylselenol”.
For `O=[Se](O)O` [selenite], the induction of apoptosis (cells in culture) is given as “induces DNA ladders and apoptosis”.
In the case of `N[C@@H](C[SeH])C(=O)O` [selenocysteine], the pKa [7] is given as 5.25.
